Reference: patent publication US7504384B2 (priority 2000, dated 2009)
Like-named read-outs stand apart in the source and are kept apart here.

Columns and labels:
[1] = test system: nitric oxide (NO) production by BAL macrophages; type: in vivo, Brown Norway rats; details: compared to asthmatic and naïve rats, p<0.001; macrophages cultured without further treatment
[2] = test system: Madin Darby canine kidney (MDCK) cells; type: cell-based; details: high concentration, Neutral Red Uptake Assay
[3] = test system: Influenza A (H3N2 strain) virus; type: cell-based, Influenza type A, A/Panama/2007/99 (H3N2); details: high concentration, Neutral Red Uptake Assay
[4] = test system: Influenza B virus; type: cell-based, Influenza type B, B/Hong Kong/330/02; details: high concentration; Visual Observation Assay; Influenza B

Which “NO level, BAL macrophages” value [1] does the source give for “dipalmitoyl-PE conjugated to HA [Compound XXII]” here?
The value was “reduced”.

Which results are given for “dipalmitoyl-phosphatidyl-ethanolamine conjugated to heparin [Compound XXIV]”?
IC50 ([2]; listed as Influenza A (H1N1 strain)): 64 mg/L; IC50 ([2]; listed as Influenza A (H3N2 strain)): 110 mg/L; IC50 ([2]; listed as Influenza B): 220 mg/L; EC50 [3]: 900 mg/L; EC50 [4]: 350 mg/L
